Laboratory results published in patent US20180049996A1, “THERAPEUTIC AGENT FOR CHRONIC RESPIRATORY DISEASE AND COMPOSITION FOR INHIBITING CARDIAC FIBROSIS” (NIPPON HYPOX LABORATORIES INCORPORATED, priority 2015, published 2018).

Legend:
[1] = system: Creatine phosphokinase (CPK); test: Creatine phosphokinase (CPK) value in blood, myocardial disorder induced by doxorubicin; format: in vivo, female SD rats; details: Test group 2: doxorubicin + HTHQ 50 mg/kg; day 14; p<0.05
Procedure: Doxorubicin is used to produce disease-model animals of cardiomyopathy. The doxorubicin and 2,3,5-trimethylhydroquinone-1-hexyl ether (HTHQ) as the hydroquinone derivative represented by the general formula (1) described above of the present invention were simultaneously administered to female SD rats of 4 week old after birth to examine the effect of the action. The test groups consisted of the control group to which sterile saline was administered; test group 1 to which doxorubicin (13 mg/kg body weight) alone was administered; test group 2 to which doxorubicin (13 mg/kg body weight) and HTHQ (50 mg/kg body weight) were administered in combination; and test group 3 to which doxorubicin (13 mg/kg body weight), HTHQ (50 mg/kg body weight) and recombinant human erythropoietin (400 IU/kg body weight) were administered in combination. The recombinant human erythropoietin (rHuEPO) is mainly used in the treatment of renal anemia etc., and has the effect to protect myocardium. The test group 3 is used to confirm the presence or absence of the inhibitory effect brought about by combining HTHQ and rHuEPO on myocardial disorder.
Doxorubicin was orally administered in a single dose to the rats in test groups 1 to 3. […]

sputum excretion = test: Sputum excretion action (phenol red excretion from trachea sections, method of Engler et al.); format: in vivo, male ICR mice; details: relative to negative control
Procedure: The hydroquinone derivative of the present invention was orally administered to 8 week old male ICR mice in a single dose, and the sputum excretion action was evaluated according to the method of Engler et al. (Engler H, Szelenyi I, J.Pharmacol. Moth. 11, 151-157, 1984).
Specifically, the test was conducted as follows. The test material was orally administered to the mice in the control group and the test groups, i.e., an aqueous solution of 2% gum arabic was administered to the mice in the negative control group, and 2,3,5-trimethylhydroquinone-1-hexyl ether (HTHQ), the test substance, was orally administered to the mice in the HTHQ-administered groups at 100 mg/kg body weight, 200 mg/kg body weight and 400 mg/kg body weight, respectively. Ambroxol (a product from Sigma-Aldrich) was orally administered to the mice in the ambroxol administered group at 250 mg/kg body weight. Here, ambroxol is a substance having expectoration action and has been selected as a positive control substance. 30 minutes after the oral administration of the test material, saline in which phenol red (a product from Sigma-Aldrich) was dissolved at a concentration of 0.05 g/mL was intraperitoneally administered at 15 mL/kg. Then, 30 minutes after the administration of phenol red, the mice were euthanized by inhalation of carbon dioxide, and the tracheae were extirpated. Given sites of the extirpated tracheae were cut into sections of fixed size to obtain trachea sections. The obtained trachea sections were added to centrifugation tubes, and 1 mL of saline was added there, and the mixture was sonicated using a ultrasonic washing machine for 15 minutes. After the centrifugation of 5 minutes at 10000 rpm, 0.5 mL of a upper layer solution was dispensed to the centrifugation tubes and 0.05 mL of 1 N sodium hydroxide was added to the tubes. After stirring with a vortex mixer, 0.2 mL of a sample was dispensed to a 96 well plate, and absorbance was measured at 546 nm using a micro plate reader (a product from BioTek Instruments, Inc). The amounts of phenol red excreted from the trachea sections of the mice in the control group and test groups were calculated by extrapolating the measured absorbance to the standard curve based on the absorbance of phenol red reference standard ([…], 2.3 and 1.2 ng/mL). The amounts of phenol red excreted from the trachea sections were substituted in the following formula to calculate the sputum excretion ability of the test material. The formula to calculate the sputum excretion ability is as follows: “sputum excretion ability(%)={(A/B)−1}×100” wherein A is the amounts of phenol red of the test material administered groups (an average) and B is the amount of phenol red of the negative control group (an average).

[2] = system: Lung Inflammation Induced by Tobacco Smoke; test: Histopathologic examination of lungs, COPD model; format: in vivo, C57BL/6N mice; details: HTHQ 10 and 20 mg/kg/day oral; tobacco smoke 10 days + LPS; compared to COPD model group
Procedure: 6 week old male SPF C57BL/6N mice, 20 to 25 g of body weight, were purchased from CORETEC INC. (South Korea).
The tests were conducted as follows. The mice in the COPD (chronic obstructive pulmonary disease) model group of the test groups were exposed to tobacco smoke for 1 hour per day (8 cigarettes/day) for 10 days and LPS (5 μg/50 μL/mouse) was intranasally administered to the mice on day 8 after the start of the tests. Roflumilast, the positive control substance, was orally administered to the mice in the positive control substance-administered group at 10 mg/kg body weight/day, and then they were exposed to tobacco smoke for 10 days starting from 1 hour after the administration of roflumilast, and LPS (5 μg/50 μL/mouse) was intranasally administered to the mice on day 8 after the start of the tests. Here, roflumilast is a selective phosphodiesterase 4 inhibitor and is a substance which is used as a therapeutic agent of COPD and asthma (approved in Europe and the United States, not approved in Japan). […] All the animals were euthanized on day 11 and bronchoalveolar lavage (BAL) examination and histopathologic examination of lungs were conducted. The mice in the normal control group and the test groups were fed sterile tap water and standard food for rodents during the test period. […]

With CCCCCCOc1cc(C)c(O)c(C)c1C [HTHQ, 2,3,5-trimethylhydroquinone-1-hexyl ether] the “creatine phosphokinase (CPK) value” [1] was “significantly lower compared to that of test group 1”, the sputum excretion ability (sputum excretion; HTHQ 100 mg/kg oral single dose) was 24.6% and the sputum excretion ability (sputum excretion; HTHQ 200 mg/kg oral single dose, significant increase) was 30.0%. The sputum excretion ability (sputum excretion; HTHQ 400 mg/kg oral single dose, significant increase) was 36.2% and the “infiltration of inflammatory cells in peribronchial lung tissue (HE stain)” value [2] was “significantly reduced in a dose-dependent manner”.
